ChEMBL document CHEMBL1201862, “PubChem BioAssay data set” (2004)
Activity calls are given as the source filed them.

Legend:
[1] = biological target: Eukaryotic translation initiation factor 4E (Mus musculus, UniProt P63073); test: blockers of eIF4G binding by eIF4E – biochemical, TR-FRET, dose response (AID 855); assay type: functional;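 further: potency for disrupting eIF4E binding to eIF4GI seen as loss of FRET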
[2] = biological target: DNA dC->dU-editing enzyme APOBEC-3G (Homo sapiens, UniProt Q9HC16); assay type: functional;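 further: Dose-response counterscreen measuring inhibition of APOBEC3G DNA deaminase activity, run while confirming APOBEC3A inhibitors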
DNA dC->dU-editing enzyme APOBEC-3G, sequence (Q9HC16 whole entry): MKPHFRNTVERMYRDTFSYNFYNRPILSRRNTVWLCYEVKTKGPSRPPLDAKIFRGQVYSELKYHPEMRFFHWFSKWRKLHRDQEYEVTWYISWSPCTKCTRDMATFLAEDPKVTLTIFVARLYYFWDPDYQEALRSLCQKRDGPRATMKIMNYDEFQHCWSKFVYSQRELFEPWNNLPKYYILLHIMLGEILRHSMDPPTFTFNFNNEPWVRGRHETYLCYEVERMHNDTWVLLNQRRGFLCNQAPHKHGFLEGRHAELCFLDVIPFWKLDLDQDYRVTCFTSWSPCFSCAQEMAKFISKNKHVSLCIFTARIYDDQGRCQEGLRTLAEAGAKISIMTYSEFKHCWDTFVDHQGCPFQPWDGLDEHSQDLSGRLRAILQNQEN

[3] = biological target: DNA dC->dU-editing enzyme APOBEC-3A (Homo sapiens, UniProt P31941); test: Dose Response confirmation of small molecule APOBEC3A DNA Deaminase Inhibitors via a fluorescence-based single-stranded DNA deaminase assay. [Related pubchem assays (depositor defined):AID493011, AID493024]; assay type: functional
DNA dC->dU-editing enzyme APOBEC-3A, sequence (P31941 whole entry, the tested form may be a part): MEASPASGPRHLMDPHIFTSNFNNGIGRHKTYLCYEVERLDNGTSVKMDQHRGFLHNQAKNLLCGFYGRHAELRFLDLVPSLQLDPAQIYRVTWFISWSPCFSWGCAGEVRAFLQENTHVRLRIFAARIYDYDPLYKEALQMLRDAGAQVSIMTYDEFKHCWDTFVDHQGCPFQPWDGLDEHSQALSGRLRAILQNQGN

[4] = biological target: T1, Carboxy-terminal domain RNA polymerase II polypeptide A small phosphatase 1 (Homo sapiens, UniProt Q9GZU7); test: CTDSP1 inhibitors, concentration-response, biochemical, absorbance readout, ultra-high-throughput screen actives (AID 540297); assay type: functional
T1 sequence (Q9GZU7 whole entry): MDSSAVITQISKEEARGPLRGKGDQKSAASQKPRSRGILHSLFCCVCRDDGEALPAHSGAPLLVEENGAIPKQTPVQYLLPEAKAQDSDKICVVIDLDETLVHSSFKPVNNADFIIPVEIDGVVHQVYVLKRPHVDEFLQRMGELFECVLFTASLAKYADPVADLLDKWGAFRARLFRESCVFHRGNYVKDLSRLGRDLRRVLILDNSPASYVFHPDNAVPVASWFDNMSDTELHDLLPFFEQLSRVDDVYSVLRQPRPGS

HEK293 [5] = test: NOD2 signaling inhibitors in MDP-stimulated cells, cell-based, uHTS, luminescence (AID 2001); assay type: functional; settings: Homo sapiens
HEK293 [6] = test: inhibition of NOD1-driven NF-kB reporter – cell-based, luminescence, uHTS, primary screen (AID 1578); assay type: functional; settings: Homo sapiens
HEK293 [7] = test: cells; assay type: functional, cell-based; settings: Homo sapiens
HEK293 [8] = test: cells; assay type: functional, cell-based; settings: Homo sapiens; remark: listed apart in the source
Leucine aminopeptidase = biological target: T2, Leucine aminopeptidase (Plasmodium falciparum 3D7, UniProt Q8IL11); test: P. falciparum M17LAP inhibitors, primary screen, biochemical, fluorogenic H-Leu-NHMec substrate, 1536-well (AID 1619); assay type: functional
T2 sequence (Q8IL11 whole entry): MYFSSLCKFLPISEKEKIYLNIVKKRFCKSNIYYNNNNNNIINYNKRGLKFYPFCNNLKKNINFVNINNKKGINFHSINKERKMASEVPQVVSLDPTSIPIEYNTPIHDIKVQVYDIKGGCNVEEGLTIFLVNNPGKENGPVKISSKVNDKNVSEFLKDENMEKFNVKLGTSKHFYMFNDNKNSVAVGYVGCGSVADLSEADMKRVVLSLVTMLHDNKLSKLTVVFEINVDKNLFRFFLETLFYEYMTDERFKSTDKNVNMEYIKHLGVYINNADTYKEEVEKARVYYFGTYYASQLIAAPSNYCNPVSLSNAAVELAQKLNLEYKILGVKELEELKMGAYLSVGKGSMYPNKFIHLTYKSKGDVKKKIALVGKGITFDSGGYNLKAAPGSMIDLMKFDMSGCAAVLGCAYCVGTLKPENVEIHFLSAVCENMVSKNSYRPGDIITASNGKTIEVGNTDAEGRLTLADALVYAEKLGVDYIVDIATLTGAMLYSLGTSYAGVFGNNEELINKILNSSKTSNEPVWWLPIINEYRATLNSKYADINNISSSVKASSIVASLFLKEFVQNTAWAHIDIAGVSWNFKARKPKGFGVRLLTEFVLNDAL

[9] = biological target: Glyceraldehyde-3-phosphate dehydrogenase (Homo sapiens, UniProt P04406)
Glyceraldehyde-3-phosphate dehydrogenase, sequence (P04406 whole entry, the tested form may be a part): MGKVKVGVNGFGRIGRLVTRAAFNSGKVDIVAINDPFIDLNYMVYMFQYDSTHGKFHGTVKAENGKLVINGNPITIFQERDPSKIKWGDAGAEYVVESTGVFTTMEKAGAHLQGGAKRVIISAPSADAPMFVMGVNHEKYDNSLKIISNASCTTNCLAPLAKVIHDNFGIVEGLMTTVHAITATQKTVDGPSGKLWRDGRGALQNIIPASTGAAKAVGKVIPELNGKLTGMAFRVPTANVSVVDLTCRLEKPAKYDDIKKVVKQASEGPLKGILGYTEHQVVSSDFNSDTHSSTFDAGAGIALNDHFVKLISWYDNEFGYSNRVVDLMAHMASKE

[10] = blockers of HIV-1 ZM109 envelope-driven cell-cell fusion – HeLa effector, CEM target cells, luciferase, cherry-pick, dose response (AID 652058); assay type: functional, cell-based;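 further: luciferase signal from HIV-1 Env mediated cell-cell fusion of effector and target cells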
[11] = off-target signal loss in HeLa-CEM21 co-culture – HeLa F-luc CTL cells, cherry-picked, counter-screen for HIV-1 Env fusion inhibitor project, dose response (AID 652040); assay type: functional, cell-based;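 further: potency for signal decrease marking cytotoxic or nonspecific inhibition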
[12] = HIV-1 AD8 envelope cell-cell fusion blockers – cherry-pick, dose response (AID 652062); assay type: functional, cell-based;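 further: luciferase signal from cell-cell fusion driven by HIV-1 clade B AD8 Env; potency is for inhibitors of fusion seen as a drop in luminescence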
[13] = blockers of HIV-1 envelope-mediated cell-cell fusion – cherry-pick, dose response (AID 652057); assay type: functional, cell-based
[14] = non-specific 3'UTR reporter inhibition in Clone20-Shn3RL – cell-based, Renilla luciferase, cherry-picked, counter-screen for Shn3 inhibitor project, dose response (AID 624133); assay type: functional
[15] = loss of viability in HepG2 cells – cell-based, CellTiter-Glo, cherry-picked, cytotoxicity control for Shn3 inhibitor project, dose response (AID 624134); assay type: functional
[16] = reduction of Shn3 3'UTR-driven luciferase in osteoblasts – cell-based, Clone20 osteoblasts, firefly luciferase, cherry-picked, dose response (AID 624132); assay type: functional;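 further: firefly luciferase luminescence from reporter carrying the Shn3 3'UTR in osteoblasts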
Cytochrome P450 3A4 = Cytochrome P450 3A4 (Homo sapiens, UniProt P08684); settings: Potency;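 further: confirmatory qHTS run detecting inhibitors and substrates of CYP3A4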
Cytochrome P450 3A4, sequence (P08684 whole entry): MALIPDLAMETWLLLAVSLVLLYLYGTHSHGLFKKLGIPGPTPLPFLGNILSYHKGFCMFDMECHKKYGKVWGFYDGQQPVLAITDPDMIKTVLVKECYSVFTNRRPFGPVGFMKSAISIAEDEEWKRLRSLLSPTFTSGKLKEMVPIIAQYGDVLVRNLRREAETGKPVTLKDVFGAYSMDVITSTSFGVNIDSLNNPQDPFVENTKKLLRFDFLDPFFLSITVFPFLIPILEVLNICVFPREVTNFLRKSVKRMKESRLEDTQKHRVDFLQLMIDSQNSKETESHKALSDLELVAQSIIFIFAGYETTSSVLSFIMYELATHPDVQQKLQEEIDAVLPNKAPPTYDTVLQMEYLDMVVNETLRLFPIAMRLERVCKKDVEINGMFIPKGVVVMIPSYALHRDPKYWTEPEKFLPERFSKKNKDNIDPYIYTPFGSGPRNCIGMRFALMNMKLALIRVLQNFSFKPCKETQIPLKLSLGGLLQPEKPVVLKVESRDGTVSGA

Fatty acid synthase [17] = biological target: T3, Fatty acid synthase (Homo sapiens, UniProt P49327); test: inhibition of human FAS-TE enzyme activity – biochemical, endpoint fluorescence intensity, uHTS hits, dose response (AID 624327); assay type: functional;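 further: fluorescence from hydrolysis of an O-methyl fluorescein acyl ester substrate by the enzyme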
T3 sequence (P49327 whole entry): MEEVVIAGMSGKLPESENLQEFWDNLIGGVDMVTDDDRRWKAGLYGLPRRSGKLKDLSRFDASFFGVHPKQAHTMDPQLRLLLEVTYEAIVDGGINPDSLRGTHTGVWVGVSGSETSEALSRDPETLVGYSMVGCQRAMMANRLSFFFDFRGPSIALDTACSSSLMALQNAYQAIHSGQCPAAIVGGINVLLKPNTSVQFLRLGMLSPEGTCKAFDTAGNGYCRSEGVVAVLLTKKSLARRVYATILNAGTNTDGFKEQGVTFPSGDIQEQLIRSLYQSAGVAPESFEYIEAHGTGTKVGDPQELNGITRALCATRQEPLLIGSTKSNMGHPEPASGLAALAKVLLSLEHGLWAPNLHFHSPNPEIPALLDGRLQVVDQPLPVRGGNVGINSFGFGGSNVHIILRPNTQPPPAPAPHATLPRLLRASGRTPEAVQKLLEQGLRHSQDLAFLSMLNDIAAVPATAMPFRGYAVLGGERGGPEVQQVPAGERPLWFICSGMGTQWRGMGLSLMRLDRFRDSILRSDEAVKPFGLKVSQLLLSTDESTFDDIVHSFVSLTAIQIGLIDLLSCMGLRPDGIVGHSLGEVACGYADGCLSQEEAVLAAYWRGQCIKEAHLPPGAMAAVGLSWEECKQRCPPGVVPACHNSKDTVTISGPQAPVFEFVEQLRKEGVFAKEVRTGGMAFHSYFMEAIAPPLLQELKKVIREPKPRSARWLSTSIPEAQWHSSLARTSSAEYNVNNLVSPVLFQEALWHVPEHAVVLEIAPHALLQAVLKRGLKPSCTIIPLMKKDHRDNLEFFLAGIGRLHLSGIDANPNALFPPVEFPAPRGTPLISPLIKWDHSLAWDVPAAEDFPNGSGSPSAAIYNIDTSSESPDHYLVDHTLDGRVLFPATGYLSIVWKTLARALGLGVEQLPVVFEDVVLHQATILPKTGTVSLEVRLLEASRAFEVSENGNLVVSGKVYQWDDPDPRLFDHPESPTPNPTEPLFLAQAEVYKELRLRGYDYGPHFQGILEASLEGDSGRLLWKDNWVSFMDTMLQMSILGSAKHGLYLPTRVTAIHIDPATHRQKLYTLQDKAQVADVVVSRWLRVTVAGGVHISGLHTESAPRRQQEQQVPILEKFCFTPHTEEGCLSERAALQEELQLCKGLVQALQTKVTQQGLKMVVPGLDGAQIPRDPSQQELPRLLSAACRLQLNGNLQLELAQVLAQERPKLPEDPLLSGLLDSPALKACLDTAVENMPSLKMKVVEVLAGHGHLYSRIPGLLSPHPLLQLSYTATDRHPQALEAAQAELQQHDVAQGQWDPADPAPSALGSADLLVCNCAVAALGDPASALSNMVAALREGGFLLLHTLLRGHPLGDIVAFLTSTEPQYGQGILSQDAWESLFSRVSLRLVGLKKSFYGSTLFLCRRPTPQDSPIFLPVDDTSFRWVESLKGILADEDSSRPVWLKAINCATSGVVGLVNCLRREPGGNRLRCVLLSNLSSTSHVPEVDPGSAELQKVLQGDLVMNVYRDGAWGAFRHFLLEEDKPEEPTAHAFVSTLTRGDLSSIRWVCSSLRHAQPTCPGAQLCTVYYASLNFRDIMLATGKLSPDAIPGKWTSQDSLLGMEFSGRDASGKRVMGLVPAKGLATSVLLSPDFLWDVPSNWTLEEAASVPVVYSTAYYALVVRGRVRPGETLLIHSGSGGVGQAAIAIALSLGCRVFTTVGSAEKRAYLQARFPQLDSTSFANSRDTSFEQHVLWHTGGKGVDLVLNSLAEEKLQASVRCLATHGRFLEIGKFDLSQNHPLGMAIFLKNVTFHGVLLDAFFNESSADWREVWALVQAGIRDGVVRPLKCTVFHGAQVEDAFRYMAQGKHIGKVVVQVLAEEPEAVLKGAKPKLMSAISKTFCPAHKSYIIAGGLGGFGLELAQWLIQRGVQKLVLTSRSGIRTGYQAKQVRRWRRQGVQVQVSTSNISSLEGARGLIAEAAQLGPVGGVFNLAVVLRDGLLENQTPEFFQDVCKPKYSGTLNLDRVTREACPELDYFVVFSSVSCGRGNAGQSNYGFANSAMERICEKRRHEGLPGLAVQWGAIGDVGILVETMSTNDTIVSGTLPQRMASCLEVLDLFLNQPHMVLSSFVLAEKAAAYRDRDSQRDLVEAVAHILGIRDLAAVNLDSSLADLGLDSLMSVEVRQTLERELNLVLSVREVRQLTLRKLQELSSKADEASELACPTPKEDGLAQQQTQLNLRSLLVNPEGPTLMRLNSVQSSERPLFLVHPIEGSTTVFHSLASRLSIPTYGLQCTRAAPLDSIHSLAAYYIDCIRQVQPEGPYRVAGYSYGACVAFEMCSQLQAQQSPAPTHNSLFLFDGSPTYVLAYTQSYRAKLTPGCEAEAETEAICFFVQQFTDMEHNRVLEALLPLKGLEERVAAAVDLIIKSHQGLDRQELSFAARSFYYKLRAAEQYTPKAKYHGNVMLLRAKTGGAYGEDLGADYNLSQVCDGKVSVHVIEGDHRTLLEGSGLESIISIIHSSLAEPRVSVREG

[18] = tested on: Streptococcus sp. 'group A'; test: Streptococcus pyogenes SK(-)GAS viability under kanamycin – luminescence, BacTiterGlo, confirmation, counter-screen for streptokinase expression inhibitor project, dose response (AID 1900); assay type: functional, organism-based
Streptococcus = test: GAS UMAA2166 growth inhibition – luminescence, BacTiterGlo, counter-screen for streptokinase expression inhibitor project, dose response (AID 1915); assay type: functional, organism-based;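 further: potency for reduction of bacterial viability or growth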
Fatty acid synthase [19] = biological target: T3, Fatty acid synthase; test: inhibition of human FAS-TE enzyme activity – biochemical, kinetic fluorescence intensity, dose response (AID 624326); assay type: functional;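 further: rate of fluorescence rise from hydrolysis of a fluorogenic O-methyl fluorescein ester substrate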
[20] = microbe, parasite or virus in culture; assay type: functional; settings: Mycobacterium tuberculosis
Streptokinase A = biological target: T4, Streptokinase A (Streptococcus pyogenes serotype M1, UniProt P10520); test: viability-normalized secreted streptokinase activity reduction – plasminogen activation absorbance, OD405, dose response (AID 1914); assay type: functional, Streptococcus pyogenes M1 GAS;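 further: secreted streptokinase activity via plasminogen activation per viability signal from cell pellet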
T4 sequence (P10520 whole entry): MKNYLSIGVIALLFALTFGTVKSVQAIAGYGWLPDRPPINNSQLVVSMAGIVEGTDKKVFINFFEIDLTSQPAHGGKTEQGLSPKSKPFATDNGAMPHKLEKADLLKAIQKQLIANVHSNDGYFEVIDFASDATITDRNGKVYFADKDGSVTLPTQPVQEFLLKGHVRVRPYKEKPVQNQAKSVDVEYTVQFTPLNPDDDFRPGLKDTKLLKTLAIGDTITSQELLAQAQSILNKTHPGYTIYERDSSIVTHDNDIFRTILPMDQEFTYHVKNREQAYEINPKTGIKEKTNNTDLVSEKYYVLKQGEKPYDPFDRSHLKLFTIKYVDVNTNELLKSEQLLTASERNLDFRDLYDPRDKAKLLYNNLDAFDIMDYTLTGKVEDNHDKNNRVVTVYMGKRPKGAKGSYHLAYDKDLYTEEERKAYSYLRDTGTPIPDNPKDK

[21] = biological target: T5, Calpain-2 catalytic subunit (Sus scrofa, UniProt P43367); test: m-calpain protease blockers, concentration series – biochemical, fluorogenic peptide substrate, dose response (AID 1420); assay type: functional
T5 sequence (P43367 whole entry): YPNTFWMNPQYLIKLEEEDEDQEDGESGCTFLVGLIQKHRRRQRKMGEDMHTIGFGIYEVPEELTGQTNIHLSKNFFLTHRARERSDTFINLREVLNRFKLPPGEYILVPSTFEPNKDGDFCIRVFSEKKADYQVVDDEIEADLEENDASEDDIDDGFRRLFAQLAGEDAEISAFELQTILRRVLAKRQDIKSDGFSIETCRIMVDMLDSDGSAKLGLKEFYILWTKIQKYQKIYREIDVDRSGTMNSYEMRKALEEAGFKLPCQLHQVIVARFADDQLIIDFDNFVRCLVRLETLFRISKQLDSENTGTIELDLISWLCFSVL

[22] = blockade of melanocortin 4 receptor signaling – cell-based, plate reader, cherry pick, counter-screen for LGR2 antagonist project, dose response (AID 743444); assay type: functional;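 further: transfected HEK 293 cells stimulated with alpha-MSH peptide; potency of inhibitors of the alpha-MSH evoked signal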
[23] = A549 cell cytotoxicity, dose response, cytotoxicity control, plate reader, cherry-pick, antagonist series (AID 743412); assay type: functional, cell-based
[24] = viability loss in HEK293 cells – cell-based, plate reader, cherry-picked samples, cytotoxicity control, dose response (AID 743446); assay type: functional
[25] = blockers of bursicon-stimulated LGR2 cAMP reporter – cell-based, HEK293, CRE-luciferase reporter, cherry pick, set 2, dose response (AID 743343); assay type: functional;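 further: transfected cells were stimulated with diluted bursicon conditioned medium after compound addition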

Eukaryotic translation initiation factor 4E, sequence (P63073 whole entry): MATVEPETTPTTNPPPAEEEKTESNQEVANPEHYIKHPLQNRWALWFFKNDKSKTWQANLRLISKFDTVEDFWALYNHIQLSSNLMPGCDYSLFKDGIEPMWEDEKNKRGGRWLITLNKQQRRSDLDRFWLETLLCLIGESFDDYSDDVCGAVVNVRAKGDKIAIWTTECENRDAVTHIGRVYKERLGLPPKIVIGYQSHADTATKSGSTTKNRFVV

SMILES: CCn1cc(C(=O)OCC(=O)c2cc(C)n(-c3ccc(OC(F)F)cc3)c2C)c(=O)c2ccc(C)nc21
- IC50 [1]: > 64 µM (inactive)

SMILES: Cc1ccc(CCCOC(=O)C[N+]2(C)CCCCC2)cc1
- IC50 [2]: 2.58 µM (active)
- IC50 [3]: 2.57 µM (active)

SMILES: O=[N+]([O-])c1ccc(C[n+]2cccc3ccccc32)cc1
- IC50 [2]: 5.45 µM (active)
- IC50 [3]: 3.26 µM (active)

SMILES: COc1ccc(/C=C(\NC(=O)c2ccccc2)C(=O)OC[C@@H]2CCC[N+]3(C)CCCCC23)cc1OC (stereo partly drawn)
- IC50 [2]: 3.58 µM (active)
- IC50 [4]: 6.62 µM (active)
- IC50 [3]: 2.2 µM (active)

SMILES: CC(C)(C)NC(=O)C(=O)NN=C1CCCCCCC1
- IC50 [1]: 50 µM (inactive)

SMILES: CCOc1ccc(NC(=O)c2cc3ccccc3cc2O)cc1
- IC50 [2]: 47.5 µM (active)
- IC50 [3]: 12.9 µM (active)

SMILES: CCCc1nc(SCC(=O)Nc2nnc(SCC)s2)c2c(=O)n(C)c(=O)n(C)c2n1
- IC50 (HEK293 [5]): 4.78 µM (active)
- EC50 (HEK293 [6]): > 20 µM (inactive)
- IC50 (HEK293 [7]): > 20 µM (inactive)
- IC50 (HEK293 [8]): 7.04 µM (active)

SMILES: CCc1ccc(C(=O)CSc2nnc[nH]2)cc1
- IC50 [1]: > 64 µM (inactive)
- IC50 (Leucine aminopeptidase): 16.7 µM (active)

SMILES: Cc1nnc(SCC(=O)Nc2ccc(O)c(C(=O)O)c2)s1
- IC50 [9]: > 100 µM (not active)

SMILES: O=C1C2CC=CCC2C(=O)N1c1nc(CCc2ccccc2)n[nH]1 (stereo not drawn)
- IC50 [9]: > 100 µM (not active)

SMILES: COc1cc(NC2c3ccccc3C(=O)N2Cc2ccccc2)cc(OC)c1OC (stereo not drawn)
- AC50 [10]: 13.1 µM (active)
- AC50 [11]: 9.63 µM (active)
- AC50 [12]: 7.97 µM (active)
- AC50 [13]: 8.41 µM (active)

SMILES: CCCOC(=O)c1[nH]c2c(c1C)C(=O)CC(c1cc(OC)c(OC)c(OC)c1)C2 (stereo not drawn)
- AC50 [14]: 6.82 µM (active)
- IC50 (HEK293 [5]): 4.9 µM (active)
- EC50 (HEK293 [6]): 2.78 µM (active)
- AC50 [15]: 52.9 µM (active)
- IC50 (HEK293 [7]): 16.4 µM (active)
- IC50 (HEK293 [8]): 6.21 µM (active)
- AC50 [16]: 1.92 µM (active)

SMILES: O=C(COC(=O)/C=C/c1ccco1)Nc1ncc(C(F)(F)F)cc1Cl
- IC50 [2]: 29.9 µM (active)
- IC50 [4]: 4.77 µM (active)
- IC50 [3]: 16.9 µM (active)

SMILES: CCCn1c(-c2ccc(F)cc2)nc2c(NCCCCN(C)C)nc(C)nc21
- AC50 (Cytochrome P450 3A4): 25.1 µM (inconclusive)

SMILES: O=C(CCc1ccc(O)cc1)c1c(O)cc(O)cc1O[C@H]1OC(CO)C(O)C(O)C1O (stereo partly drawn)
- AC50 (Cytochrome P450 3A4): 39.8 µM (inconclusive)

SMILES: O=C(O)/C=C/C(=O)Nc1ccccc1C(=O)OCC(=O)c1ccc2c(c1)OCCO2
- IC50 (Leucine aminopeptidase): 36.9 µM (active)

SMILES: Cc1ccc(S(=O)(=O)N(CC(=O)O)Cc2ccco2)cc1
- IC50 [2]: 28.4 µM (active)
- IC50 [3]: 16 µM (active)

SMILES: CCC1=C2CC[C@H]3C(=O)NC(=O)[C@H]3[C@H]2[C@@]2(C)/C(=N/CC3CC3)OC(=O)N2C1=O
- AC50 (Cytochrome P450 3A4): 25.1 µM (inconclusive)

SMILES: CC(C)C[C@H](NC(=O)c1[nH]cnc1C(=O)NC1CCN(C(=O)OC(C)(C)C)CC1)C(=O)OCc1ccccc1
- IC50 (Fatty acid synthase [17]): 8.64 µM (active)
- EC50 [18]: 8.37 µM (active)
- EC50 (Streptococcus): 12.3 µM (active)
- IC50 (Fatty acid synthase [19]): 6.28 µM (active)
- CC50 [20]: > 40 µM (active)
- EC50 (Streptokinase A): > 150 µM (not active)
- IC50 [21]: 4.9 µM (not active)

SMILES: O=C(O)C1CC=CCC1C(=O)Nc1ccccc1Cl (stereo not drawn)
- IC50 (Leucine aminopeptidase): 12 µM (active)

SMILES: COc1cc(NC2c3ccccc3C(=O)N2Cc2ccc3c(c2)OCO3)cc(OC)c1OC (stereo not drawn)
- AC50 [10]: 5.79 µM (active)
- AC50 [11]: 14.7 µM (active)
- AC50 [12]: 10.1 µM (active)
- AC50 [13]: 6.77 µM (active)

SMILES: O=C(O)CS(=O)(=O)c1ccc2ccccc2c1
- IC50 [9]: > 100 µM (not active)

SMILES: Oc1nc2ccccc2n1C1CCN(C(c2ccccc2OC(F)(F)F)c2nnnn2Cc2ccccc2)CC1 (stereo not drawn)
- AC50 [22]: 22.9 µM (active)
- AC50 [23]: 18.9 µM (active)
- AC50 [24]: 17.6 µM (active)
- AC50 [25]: 20.5 µM (active)

SMILES: c1ccc2c(Cc3c[nH]c4ccccc34)c[nH]c2c1 [ARUNDINE]
- AC50 (Cytochrome P450 3A4): 39.8 µM (inconclusive)

SMILES: COC(=O)CC[C@@H](C)[C@H]1CC[C@H]2[C@@H]3[C@H](O)C[C@@H]4C[C@H](O)CC[C@]4(C)[C@H]3C[C@H](O)[C@]12C [CHOLIC ACID, METHYL ESTER]
- AC50 (Cytochrome P450 3A4): 31.6 µM (inconclusive)
